SMILES strings stand for the structures.

What is called IC50 is the concentration needed to halve the response being measured. A lower IC50 goes with greater potency in that assay.

This assay addresses T1, Beta-glucuronidase (Homo sapiens, UniProt P08236).
T1 sequence (P08236 whole entry): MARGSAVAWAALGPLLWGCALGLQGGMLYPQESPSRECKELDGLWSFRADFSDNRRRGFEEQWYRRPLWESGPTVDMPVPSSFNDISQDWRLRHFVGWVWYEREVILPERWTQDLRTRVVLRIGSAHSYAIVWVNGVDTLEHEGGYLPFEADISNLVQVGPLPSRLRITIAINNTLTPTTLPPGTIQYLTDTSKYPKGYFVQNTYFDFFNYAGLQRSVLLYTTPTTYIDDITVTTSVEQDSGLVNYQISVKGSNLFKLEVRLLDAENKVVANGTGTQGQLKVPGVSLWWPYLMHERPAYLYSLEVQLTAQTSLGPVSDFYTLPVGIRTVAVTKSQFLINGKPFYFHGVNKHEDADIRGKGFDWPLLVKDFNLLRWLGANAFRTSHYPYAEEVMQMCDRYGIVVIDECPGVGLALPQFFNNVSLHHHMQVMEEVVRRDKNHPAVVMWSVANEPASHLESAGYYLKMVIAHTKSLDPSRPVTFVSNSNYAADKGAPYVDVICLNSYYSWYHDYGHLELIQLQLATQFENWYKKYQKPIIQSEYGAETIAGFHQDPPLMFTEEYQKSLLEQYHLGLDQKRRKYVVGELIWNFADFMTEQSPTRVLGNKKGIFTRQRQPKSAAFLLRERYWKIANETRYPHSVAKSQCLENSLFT
The experiment in a line: Inhibition of human beta-glucuronidase.

On to `Cc1ccc(C(c2c[nH]c3ccc(C(=O)N/N=C/c4cccnc4)cc23)c2c[nH]c3ccc(C(=O)N/N=C/c4cccnc4)cc23)cc1`, for which inhibition was half-maximal at 32.9 µM (IC50).
The same measure for `Cc1ccc(/C=N/NC(=O)c2ccc3[nH]cc(C(c4ccc(C)cc4)c4c[nH]c5ccc(C(=O)N/N=C/c6ccc(C)cc6)cc45)c3c2)cc1`: 12.5 µM; for `COc1ccc(/C=N/NC(=O)c2ccc3[nH]cc(C(c4ccc(C)cc4)c4c[nH]c5ccc(C(=O)N/N=C/c6ccc(OC)c(O)c6)cc45)c3c2)cc1O`: 2.67 µM; for `Cc1ccc(C(c2c[nH]c3ccc(C(=O)N/N=C/c4cccc(C)c4)cc23)c2c[nH]c3ccc(C(=O)N/N=C/c4cccc(C)c4)cc23)cc1`: 33.5 µM.
Take `Cc1ccc(C(c2c[nH]c3ccc(C(=O)N/N=C/c4c(O)cc(O)cc4O)cc23)c2c[nH]c3ccc(C(=O)N/N=C/c4c(O)cc(O)cc4O)cc23)cc1`: half-maximal inhibition (IC50) was put at 0.2 µM.
`COc1ccc(/C=N/NC(=O)c2ccc3[nH]cc(C(c4ccc(C)cc4)c4c[nH]c5ccc(C(=O)N/N=C/c6ccc(OC)cc6O)cc45)c3c2)c(O)c1` registered an IC50 of 3.45 µM.
The same measure for `Cc1ccc(C(c2c[nH]c3ccc(C(=O)N/N=C/c4ccc(F)cc4)cc23)c2c[nH]c3ccc(C(=O)N/N=C/c4ccc(F)cc4)cc23)cc1`: 2.8 µM.
Under `Cc1ccc(C(c2c[nH]c3ccc(C(=O)N/N=C/c4ccccc4O)cc23)c2c[nH]c3ccc(C(=O)N/N=C/c4ccccc4O)cc23)cc1` stands 1.5 µM; under `COc1ccc(/C=N/NC(=O)c2ccc3[nH]cc(C(c4ccc(C)cc4)c4c[nH]c5ccc(C(=O)N/N=C/c6ccc(OC)cc6)cc45)c3c2)cc1`, 32.8 µM; under `Cc1ccc(C(c2c[nH]c3ccc(C(=O)N/N=C/c4ccccc4C)cc23)c2c[nH]c3ccc(C(=O)N/N=C/c4ccccc4C)cc23)cc1`, 22.2 µM.
Consider `Cc1ccc(C(c2c[nH]c3ccc(C(=O)N/N=C/C=C/c4ccccc4)cc23)c2c[nH]c3ccc(C(=O)N/N=C/C=C/c4ccccc4)cc23)cc1`, for which the IC50 was found to be 2.98 µM. Compared with the last compound, the IC50 is about 7.4-fold lower.
The same measure for `Cc1ccc(C(c2c[nH]c3ccc(C(=O)N/N=C/c4ccc(O)cc4O)cc23)c2c[nH]c3ccc(C(=O)N/N=C/c4ccc(O)cc4O)cc23)cc1`: 0.3 µM.
As to `Cc1ccc(C(c2c[nH]c3ccc(C(=O)N/N=C/c4ccncc4)cc23)c2c[nH]c3ccc(C(=O)N/N=C/c4ccncc4)cc23)cc1`, 23.4 µM corresponded to half-maximal inhibition (IC50).
For the compound `Cc1ccc(C(c2c[nH]c3ccc(C(=O)N/N=C/c4cccc(O)c4O)cc23)c2c[nH]c3ccc(C(=O)N/N=C/c4cccc(O)c4O)cc23)cc1`, it took 0.1 µM to reach half-maximal inhibition (IC50).
The same measure for `Cc1ccc(C(c2c[nH]c3ccc(C(=O)N/N=C/c4ccc(O)c(O)c4)cc23)c2c[nH]c3ccc(C(=O)N/N=C/c4ccc(O)c(O)c4)cc23)cc1`: 0.3 µM.
`Cc1ccc(C(c2c[nH]c3ccc(C(=O)N/N=C/c4ccc(F)c(Br)c4)cc23)c2c[nH]c3ccc(C(=O)N/N=C/c4ccc(F)c(Br)c4)cc23)cc1` gave a 50% inhibitory concentration (IC50) of 15.8 µM.
Consider `Cc1ccc(C(c2c[nH]c3ccc(C(=O)N/N=C/c4ccc(Cl)cc4Cl)cc23)c2c[nH]c3ccc(C(=O)N/N=C/c4ccc(Cl)cc4Cl)cc23)cc1`, for which the IC50 turned out to be 1.1 µM.
On to `Cc1ccc(C(c2c[nH]c3ccc(C(=O)N/N=C/c4ccccc4F)cc23)c2c[nH]c3ccc(C(=O)N/N=C/c4ccccc4F)cc23)cc1`, for which 1.2 µM corresponded to half-maximal inhibition (IC50).
In turn, `COc1ccc(/C=N/NC(=O)c2ccc3[nH]cc(C(c4ccc(C)cc4)c4c[nH]c5ccc(C(=O)N/N=C/c6ccc(OC)c(O)c6I)cc45)c3c2)c(I)c1O` returned an IC50 of 43.5 µM.
In the case of `Cc1ccc(C(c2c[nH]c3ccc(C(=O)N/N=C/c4ccccc4[N+](=O)[O-])cc23)c2c[nH]c3ccc(C(=O)N/N=C/c4ccccc4[N+](=O)[O-])cc23)cc1`, 48.5 µM corresponded to half-maximal inhibition (IC50).
The same measure for `Cc1ccc(C(c2c[nH]c3ccc(C(=O)N/N=C/c4ccc(O)cc4)cc23)c2c[nH]c3ccc(C(=O)N/N=C/c4ccc(O)cc4)cc23)cc1`: 2.35 µM.
Under `Cc1ccc(C(c2c[nH]c3ccc(C(=O)N/N=C/c4cccc([N+](=O)[O-])c4)cc23)c2c[nH]c3ccc(C(=O)N/N=C/c4cccc([N+](=O)[O-])c4)cc23)cc1` stands 7.57 µM.
Under `Cc1ccc(C(c2c[nH]c3ccc(C(=O)N/N=C/c4cccc(F)c4)cc23)c2c[nH]c3ccc(C(=O)N/N=C/c4cccc(F)c4)cc23)cc1` stands 2.2 µM.
Compound `Cc1ccc(C(c2c[nH]c3ccc(C(=O)N/N=C/c4cc(O)ccc4O)cc23)c2c[nH]c3ccc(C(=O)N/N=C/c4cc(O)ccc4O)cc23)cc1` had an IC50 of 1.14 µM.
`COc1ccc(O)c(/C=N/NC(=O)c2ccc3[nH]cc(C(c4ccc(C)cc4)c4c[nH]c5ccc(C(=O)N/N=C/c6cc(OC)ccc6O)cc45)c3c2)c1` had an IC50 of 2.1 µM.
Under `Cc1ccc(C(c2c[nH]c3ccc(C(=O)N/N=C/c4ccccn4)cc23)c2c[nH]c3ccc(C(=O)N/N=C/c4ccccn4)cc23)cc1` stands 13.1 µM; under `Cc1ccc(C(c2c[nH]c3ccc(C(=O)N/N=C/c4cc(O)c(O)cc4O)cc23)c2c[nH]c3ccc(C(=O)N/N=C/c4cc(O)c(O)cc4O)cc23)cc1`, 0.1 µM; under `Cc1ccc(C(c2c[nH]c3ccc(C(=O)N/N=C/c4ccccc4Cl)cc23)c2c[nH]c3ccc(C(=O)N/N=C/c4ccccc4Cl)cc23)cc1`, 2.8 µM.
Under `Cc1ccc(C(c2c[nH]c3ccc(C(=O)N/N=C/c4ccccc4)cc23)c2c[nH]c3ccc(C(=O)N/N=C/c4ccccc4)cc23)cc1` stands 42.8 µM; under `Cc1ccc(C(c2c[nH]c3ccc(C(=O)N/N=C/c4cccc(O)c4)cc23)c2c[nH]c3ccc(C(=O)N/N=C/c4cccc(O)c4)cc23)cc1`, 5.87 µM.
The same measure for `Cc1ccc(C(c2c[nH]c3ccc(C(=O)N/N=C/c4ccc(Cl)cc4)cc23)c2c[nH]c3ccc(C(=O)N/N=C/c4ccc(Cl)cc4)cc23)cc1`: 5.8 µM; for `Cc1ccc(C(c2c[nH]c3ccc(C(=O)N/N=C/c4cccc(Cl)c4)cc23)c2c[nH]c3ccc(C(=O)N/N=C/c4cccc(Cl)c4)cc23)cc1`: 6.9 µM.

Source of the values: ChEMBL document CHEMBL4138172, “Synthesis of bis-indolylmethanes as new potential inhibitors of β-glucuronidase and their molecular docking studies” (Eur J Med Chem, 2018).
